Reference: patent US20110105623A1 (Biogenic Innovations, LLC, priority 2009, published 2011)

Key:
Escherichia coli [1] = assay: USP AET, MSM in TSB; type: cell-based; set-up: key: Colonies too numerous to count (TNTC); conditions: 48 hrs
Excerpt: (§1) Compounds or formulated products having antimicrobial activity may be evaluated with the United States Pharmacopeia (USP) Antimicrobial Effectiveness Test (AET). The AET involves the addition of specified microorganisms (Candida albicans, Aspergillus niger, Escherichia coli, Pseudomonas aeruginosa and Staphylococcus aureus) directly to a test product at relatively high concentrations to simulate contamination. The product is held for one month, with weekly analysis of microorganism levels. Depending on the route of administration of a product, satisfaction of the AET generally requires a 1 to 3 log reduction in bacteria from initial levels, which should occur in one to two weeks, with no further increase in bacteria after two weeks. For yeast and mold, no increase from the initial inoculums level is permitted.
(§2) Inoculations were made using Candida albicans, Aspergillus niger, Escherichia coli, Pseudomonas aeruginosa and Staphylococcus aureus. Tryptic soy broth (TSB) was used as the culturing media. […] The inoculated media was held for one month, during which time the added microorganisms were enumerated weekly to determine if they were growing, dying off, or remaining near the initial inoculation level. Data points were measured in triplicate at 48 hours, 3, 5, 14, 20, 28, and 30 days. The acceptance criteria for antimicrobial effectiveness are described in detail in the USP, herein incorporated by reference.

Pseudomonas aeruginosa = assay: USP AET, MSM in TSB; type: cell-based; set-up: key: Colonies too numerous to count (TNTC); conditions: 48 hrs
Excerpt: as §1, §2

Bacillus coagulans = assay: Growth in simulated gastric acid supplemented with MSM; type: cell-based
[2] = tested on: Acidophilus plus Bifidus milk microorganisms; assay: Recovery from Acidophilus plus bifidus milk fortified with MSM; type: cell-based; conditions: for Lag Recovery of Lactobacillus acidophilus in Milk fortified with MSM Day 14: A/B 2.5 MSM; for Lag Recovery of Lactobacillus acidophilus in Milk fortified with MSM Day 7 / Lag Recovery of Lactobacillus acidophilus in Milk fortified with MSM Day 21 / Lag Recovery of Lactobacillus acidophilus in Milk fortified with MSM Day 28: A/B […] MSM
[3] = tested on: Acidophilus plus Bifidus milk microorganisms; assay: Growth in Acidophilus plus Bifidus milk fortified with MSM; conditions: A/B milk […] MSM
Procedure: Then samples were evaluated every 7 days for a total of 28 days. […] The milks were bought at a local store. The Acidophilus milk was low fat (Darigold). The Acidophilus plus Bifidus milk contained 2% milkfat (Lucerne). […] The working solutions were held at 4° C. during the study.

[4] = tested on: Streptococcus Pyogenes (Lancefield group A, #10096); assay: Bacterial viability by bioluminescent ATP assay
Escherichia coli [5] = assay: USP <51> AET in cosmetic cream/composition; type: cell-based; conditions: for AET microorganism count: 48 hrs-28 days; for Log Reduction from Initial Microorganism Inoculum: 14, 28 Days

With Methylsulfonylmethane [MSM] the AET microorganism count (Escherichia coli [1]; 1:100 dilution of MSM) was “TNTC”, the AET microorganism count (Escherichia coli [1]; 1:1000 dilution of MSM) was “TNTC” and the AET microorganism count (Pseudomonas aeruginosa; 1:100 dilution of MSM) was “TNTC”. The AET microorganism count (Pseudomonas aeruginosa; 1:1000 dilution of MSM) was “TNTC”, the “Log Growth of Bacillus coagulans average” value (Bacillus coagulans; 5% MSM, 0 hours) was 0.26 logs and the “Log Growth of Bacillus coagulans average” value (Bacillus coagulans; 5% MSM, 3 hours) was 0 logs. The “Log Growth of Bacillus coagulans in duplicate” value (“Log Growth … in duplicate” below) (Bacillus coagulans; 5% MSM, 3 hours) was 0 logs, the “Log Growth of Bacillus coagulans average” value (Bacillus coagulans; 5% MSM, 6 hours) was 0 logs and the “Log Growth … in duplicate” value (Bacillus coagulans; 5% MSM, 6 hours) was 0 logs. For the same substance, the “Log Growth of Bacillus coagulans average” value (Bacillus coagulans; 5% MSM, 9 hours) was 0 logs, the “Log Growth … in duplicate” value (Bacillus coagulans; 5% MSM, 9 hours) was 0 logs and the “Log Growth of Bacillus coagulans average” value (Bacillus coagulans; 5% MSM, 12 hours) was 0 logs. For the same substance, the “Log Growth … in duplicate” value (Bacillus coagulans; 5% MSM, 12 hours) was 0 logs, the “Log Growth of Bacillus coagulans average” value (Bacillus coagulans; 5% MSM, 15 hours) was 0.26 logs and the “Log Growth of Bacillus coagulans average” value (Bacillus coagulans; 5% MSM, 24 hours) was 0 logs. The “Log Growth … in duplicate” value (Bacillus coagulans; 5% MSM, 24 hours) was 0 logs, the “Log Growth of Bacillus coagulans average” value (Bacillus coagulans; 5% MSM, 48 hours) was 0 logs and the “Log Growth … in duplicate” value (Bacillus coagulans; 5% MSM, 48 hours) was 0 logs. The “Log Growth … in duplicate” value (Bacillus coagulans; […] MSM, 0 hours) was 0 logs, the “Log Growth … in duplicate” value (Bacillus coagulans; […] MSM, 3 hours) was 0 logs and the “Log Growth of Bacillus coagulans average” value (Bacillus coagulans; […] MSM, 9 hours) was 0 logs. For the same substance, the “Log Growth … in duplicate” value (Bacillus coagulans; […] MSM, 9 hours) was 0 logs, the “Log Growth … in duplicate” value (Bacillus coagulans; […] MSM, 12 hours) was 0 logs and the “Log Growth of Bacillus coagulans average” value (Bacillus coagulans; […] MSM, 15 hours) was 0 logs. The “Log Growth … in duplicate” value (Bacillus coagulans; […] MSM, 15 hours) was 0 logs, the “Log Growth of Bacillus coagulans average” value (Bacillus coagulans; […] MSM, 24 hours) was 0 logs and the “Log Growth … in duplicate” value (Bacillus coagulans; […] MSM, 24 hours) was 0 logs. For the same substance, the “Log Growth of Bacillus coagulans average” value (Bacillus coagulans; […] MSM, 48 hours) was 0 logs, the “Log Growth … in duplicate” value (Bacillus coagulans; […] MSM, 48 hours) was 0 logs and the “initial recovery, average” value (Bacillus coagulans; […] and 5.0% MSM) was 0.26 logs. For the same substance, the “Lag Recovery of Lactobacillus acidophilus in Milk fortified with MSM Day 14” value (shortened to “Lag Recovery … with MSM Day 14”) ([2]; Day 14-24) was 13.35 logs, the “Lag Recovery … with MSM Day 14” value ([2]; Day 14-48) was 13.47 logs and the “Lag Recovery … with MSM Day 14” value ([2]; Day 14-72) was 13.43 logs. The “Lag Recovery of Lactobacillus acidophilus in Milk fortified with MSM Day 7” value ([2]; Day 7-24) was 13.44 logs, the “Lag Recovery of Lactobacillus acidophilus in Milk fortified with MSM Day 7” value ([2]; Day 7-72) was 12.77 logs and the “Lag Recovery of Lactobacillus acidophilus in Milk fortified with MSM Day 21” value (from here on “Lag Recovery … with MSM Day 21”) ([2]; Day 21-24) was 13.08 logs. The “Lag Recovery … with MSM Day 21” value ([2]; Day 21-48) was 12.08 logs, the “Lag Recovery … with MSM Day 21” value ([2]; Day 21-72) was 12.33 logs and the “Lag Recovery of Lactobacillus acidophilus in Milk fortified with MSM Day 28” value (“Lag Recovery … with MSM Day 28” for short) ([2]; Day 28-24) was 12.67 logs. The “Lag Recovery … with MSM Day 28” value ([2]; Day 28-48) was 13.19 logs, the “Lag Recovery … with MSM Day 28” value ([2]; Day 28-72) was 12.00 logs and the “Recovery of Lactobacillus acidophilus in Milk fortified with MSM Day 7, initial start data” value ([2]; Ac/Bf […] MSM, Day 7) was 8.42 logs. The “Recovery of Lactobacillus acidophilus in Milk fortified with MSM Day 14, initial start data” value ([2]; Ac/Bf […] MSM, Day 14-0) was 3.70 logs, the “Recovery of Lactobacillus acidophilus in Milk fortified with MSM Day 21, initial start data” value ([2]; Ac/Bf […] MSM, Day 21) was 3.37 logs and the “Recovery of Lactobacillus acidophilus in Milk fortified with MSM Day 28, initial start data” value ([2]; Ac/Bf […] MSM, Day 28) was 1.94 logs. For the same substance, the “Day 7 log recovery growth rate increase from start time of zero” value (“Day 7 log recovery growth rate increase” for short) ([2]; Ac/Bf […] MSM, Hour 0) was 0.00 logs, the “Day 14 log recovery growth rate increase from start time of zero” value (shortened to “Day 14 log recovery growth rate increase”) ([2]; Ac/Bf […] MSM, Hour 0) was 0.00 logs and the “Day 21 log recovery growth rate increase from start time of zero” value (“Day 21 log recovery growth rate increase” for short) ([2]; Ac/Bf […] MSM, Hour 0) was 0.00 logs. For the same substance, the “Day 7 log recovery growth rate increase” value ([2]; Ac/Bf […] MSM, Hour 24) was 5.02 logs, the “Day 14 log recovery growth rate increase” value ([2]; Ac/Bf […] MSM, Hour 24) was 9.65 logs and the “Day 21 log recovery growth rate increase” value ([2]; Ac/Bf […] MSM, Hour 24) was 9.71 logs. For the same substance, the “Day 7 log recovery growth rate increase” value ([2]; Ac/Bf […] MSM, Hour 48) was −0.94 logs, the “Day 14 log recovery growth rate increase” value ([2]; Ac/Bf […] MSM, Hour 48) was 0.12 logs and the “Day 21 log recovery growth rate increase” value ([2]; Ac/Bf […] MSM, Hour 48) was −1.00 logs. The “Day 7 log recovery growth rate increase” value ([2]; Ac/Bf […] MSM, Hour 72) was 0.27 logs, the “Day 14 log recovery growth rate increase” value ([2]; Ac/Bf […] MSM, Hour 72) was −0.04 logs and the “Day 21 log recovery growth rate increase” value ([2]; Ac/Bf […] MSM, Hour 72) was 0.25 logs. The “Day 28 log recovery growth rate increase from start time of zero” value (“Day 28 log recovery growth rate increase” below) ([2]; Ac/Bf […] MSM, Time 0) was 0.00 logs, the “Day 28 log recovery growth rate increase” value ([2]; Ac/Bf […] MSM, Time 24) was 10.73 logs and the “Day 28 log recovery growth rate increase” value ([2]; Ac/Bf […] MSM, Time 48) was 0.52 logs. The “Day 28 log recovery growth rate increase” value ([2]; Ac/Bf […] MSM, Time 72) was −1.19 logs, the “Log Growth of Lactobacillus acidophilus in Milk fortified with MSM” value (shortened to “Log Growth of Lactobacillus acidophilus”) ([3]; Day 7) was 10.42 logs and the “Log Growth of Lactobacillus acidophilus” value ([3]; Day 21) was 5.37 logs. The “Log Growth of Lactobacillus acidophilus” value ([3]; Day 28) was 3.94 logs, the “Log Growth of Lactobacillus acidophilus” value ([3]; hour 0) was 6.41 logs and the “Log Growth of Lactobacillus acidophilus” value ([3]; hour 8) was 8.67 logs. For the same substance, the “Log Growth of Lactobacillus acidophilus” value ([3]; hour 24) was 9.16 logs, the “Log Growth of Lactobacillus acidophilus” value ([3]; hour 32) was 8.87 logs and the “Log Growth of Lactobacillus acidophilus” value ([3]; hour 48) was 8.3 logs. The “Log Growth of Lactobacillus acidophilus” value ([3]; hour 56) was 8.56 logs, the “Log Growth of Lactobacillus acidophilus” value ([3]; hour 72) was 8.45 logs and the “Log Growth of Lactobacillus acidophilus” value ([3]; hour 80) was 9.82 logs. The “Log Growth of Lactobacillus acidophilus” value ([3]; hour 96) was 8.61 logs, the “Log Growth of Lactobacillus acidophilus” value ([3]; hour 104) was 8.92 logs and the IC50 [4] was 10.26%. The AET microorganism count (Escherichia coli [5]; 10% MSM in Preservative Free Cosmetic Composition #1, 48 hours after inoculation) was 5.4 × 10^4, the AET microorganism count (Escherichia coli [5]; 10% MSM in Preservative Free Cosmetic Composition #1, 7 days after inoculation) was less than 10 and the AET microorganism count (Escherichia coli [5]; 10% MSM in cosmetic cream without preservative) was less than 10. For the same substance, the “Log Reduction from Initial Microorganism Inoculum” value (shortened to “Log Reduction”) (Escherichia coli [5]; 10% MSM in preservative-free jojoba cream) was 5.7 log, the “Log Reduction” value (Escherichia coli [5]; 10% MSM, Composition #1) was 5.8 log and the “Log Reduction” value (Escherichia coli [5]; 10% MSM, Composition #2) was 5.8 log.
